PubChem BioAssay AID222 (DTP/NCI, 2004)
Several values for one entry are separate records, joined by “and”; a condition that tells them apart may be missing. Equal entries are not always repeated. Inconclusive results and toxic doses are left out. How the source made its calls: active means survival T/C of 150% or more; inactive means T/C below 125% in these data.

Test system: C57BL/6 mice, intracerebral ependymoblastoma, median survival T/C
Assay: NCI In Vivo Anticancer Drug Screen. Data for tumor model Ependymoblastoma (intracerebral) in C57BL/6 mice
Conditions: endpoint: median survival time, higher = longer survival
Procedure: The antitumor activity of compounds was measured in mice bearing transplantable tumors. Survival or tumor size were measured and the results are expressed as the measurement made in the treated group (T) divided by the measurement made in the vehicle treated control group (C). The tumor model used in this assay is Ependymoblastoma (intracerebral) in C57BL/6 mice

[1] = dose: 45.0 mg/kg/injection, schedule: Q01DX005 (ip), vehicle: saline with Tween-80
[2] = dose: 90.0 mg/kg/injection, schedule: Q01DX005 (ip), vehicle: saline with Tween-80
[3] = dose: 180.0 mg/kg/injection, schedule: Q01DX005 (ip), vehicle: saline with Tween-80
[4] = dose: 0.05 mg/kg/injection, schedule: Q01DX005 (ip), vehicle: saline
[5] = dose: 0.1 mg/kg/injection, schedule: Q01DX005 (ip), vehicle: saline
[6] = dose: 0.2 mg/kg/injection, schedule: Q01DX005 (ip), vehicle: saline
[7] = dose: 0.4 mg/kg/injection, schedule: Q01DX005 (ip), vehicle: saline
[8] = dose: 0.8 mg/kg/injection, schedule: Q01DX005 (ip), vehicle: saline
[9] = dose: 16.0 mg/kg/injection, schedule: Q01DX005 (ip), vehicle: saline
[10] = dose: 8.0 mg/kg/injection, schedule: Q01DX005 (ip), vehicle: saline
[11] = dose: 32.0 mg/kg/injection, schedule: Q01DX005 (ip), vehicle: saline
[12] = dose: 64.0 mg/kg/injection, schedule: Q01DX005 (ip), vehicle: saline

Measured: T/C

CC(=O)Nc1ccc(/C=N/NC(N)=S)cc1
inactive: [1] 98 % of control | [2] 93 % of control and 102 % of control | [3] 92 % of control and 104 % of control | dose: 360.0 mg/kg/injection, schedule: Q01DX005 (ip), vehicle: saline with Tween-80 96 % of control and 98 % of control | dose: 720.0 mg/kg/injection, schedule: Q01DX005 (ip), vehicle: saline with Tween-80 105 % of control and 110 % of control

CCC1CC2CC(c3cc4c(cc3OC)N(C)C3C(O)(C(=O)OC)C(OC(C)=O)C5(CC)C=CCN6CCC43C65)c3[nH]c4ccccc4c3CCN(C1)C2 (stereo unspecified)
inactive: [4] 108 % of control | [5] 112 % of control | [6] 97 % of control | [7] 119 % of control | [8] 107 % of control | dose: 3.2 mg/kg/injection, schedule: Q01DX005 (ip), vehicle: saline 96 % of control | dose: 6.4 mg/kg/injection, schedule: Q01DX005 (ip), vehicle: saline 105 % of control | dose: 12.8 mg/kg/injection, schedule: Q01DX005 (ip), vehicle: saline 102 % of control

COS(C)(=O)=O
inactive: [9] 113 % of control

COc1ccc2c(c1O)-c1cc(O)cc3c1C(C2)N(CCCl)CC3 (stereo unspecified)
inactive: dose: 4.0 mg/kg/injection, schedule: Q01DX005 (ip), vehicle: saline with Tween-80 95 % of control and 98 % of control | dose: 8.0 mg/kg/injection, schedule: Q01DX005 (ip), vehicle: saline with Tween-80 98 % of control | dose: 16.0 mg/kg/injection, schedule: Q01DX005 (ip), vehicle: saline with Tween-80 94 % of control and 100 % of control | dose: 32.0 mg/kg/injection, schedule: Q01DX005 (ip), vehicle: saline with Tween-80 110 % of control

CCOC(=O)CC(SP(=S)(OC)OC)C(=O)OCC (stereo unspecified)
inactive: dose: 24.0 mg/kg/injection, schedule: Q01DX005 (ip), vehicle: saline with Tween-80 101 % of control and 104 % of control | [1] 101 % of control and 108 % of control | dose: 50.0 mg/kg/injection, schedule: Q01DX005 (ip), vehicle: suspension in saline 102 % of control | [2] 95 % of control and 116 % of control | dose: 100.0 mg/kg/injection, schedule: Q01DX005 (ip), vehicle: suspension in saline 103 % of control | [3] 104 % of control | dose: 200.0 mg/kg/injection, schedule: Q01DX005 (ip), vehicle: suspension in saline 99 % of control

Nc1ccnc(=O)[nH]1
inactive: dose: 64.0 mg/kg/injection, schedule: Q01DX005 (ip), vehicle: saline with Tween-80 95 % of control | dose: 128.0 mg/kg/injection, schedule: Q01DX005 (ip), vehicle: saline with Tween-80 90 % of control | dose: 256.0 mg/kg/injection, schedule: Q01DX005 (ip), vehicle: saline with Tween-80 104 % of control | dose: 512.0 mg/kg/injection, schedule: Q01DX005 (ip), vehicle: saline with Tween-80 87 % of control | dose: 1024.0 mg/kg/injection, schedule: Q01DX005 (ip), vehicle: saline with Tween-80 107 % of control

CN(C)CCCNc1c2ccccc2nc2cccc([N+](=O)[O-])c12
inactive: dose: 0.01 mg/kg/injection, schedule: Q## X006 (ip), vehicle: saline 99 % of control | dose: 0.03 mg/kg/injection, schedule: Q01DX001 (ip), vehicle: saline 101 % of control | dose: 0.03 mg/kg/injection, schedule: Q## X006 (ip), vehicle: saline 94 % of control | dose: 0.06 mg/kg/injection, schedule: Q01DX001 (ip), vehicle: saline 92 % of control | dose: 0.06 mg/kg/injection, schedule: Q01DX005 (ip), vehicle: saline 99 % of control and 100 % of control and 102 % of control | dose: 0.06 mg/kg/injection, schedule: Q#A X002 (ip), vehicle: saline 101 % of control and 117 % of control | dose: 0.12 mg/kg/injection, schedule: Q01DX001 (ip), vehicle: saline 92 % of control | dose: 0.12 mg/kg/injection, schedule: Q01DX005 (ip), vehicle: saline 98 % of control | dose: 0.12 mg/kg/injection, schedule: Q#A X002 (ip), vehicle: saline 106 % of control and 111 % of control | dose: 0.13 mg/kg/injection, schedule: Q01DX005 (ip), vehicle: saline 94 % of control | dose: 0.25 mg/kg/injection, schedule: Q01DX001 (ip), vehicle: saline 91 % of control | dose: 0.25 mg/kg/injection, schedule: Q#A X002 (ip), vehicle: saline 88 % of control and 101 % of control | dose: 0.5 mg/kg/injection, schedule: Q01DX001 (oral), vehicle: saline 95 % of control | dose: 0.5 mg/kg/injection, schedule: Q#A X002 (ip), vehicle: saline 94 % of control and 100 % of control | dose: 1.0 mg/kg/injection, schedule: Q01DX001 (oral), vehicle: suspension in saline 100 % of control | dose: 1.0 mg/kg/injection, schedule: Q#A X002 (ip), vehicle: saline 87 % of control and 91 % of control | dose: 2.0 mg/kg/injection, schedule: Q01DX001 (ip), vehicle: saline 89 % of control | dose: 2.0 mg/kg/injection, schedule: Q01DX001 (oral), vehicle: saline 104 % of control | dose: 2.0 mg/kg/injection, schedule: Q01DX001 (oral), vehicle: suspension in saline 100 % of control | dose: 2.0 mg/kg/injection, schedule: Q#A X002 (ip), vehicle: saline 87 % of control | dose: 4.0 mg/kg/injection, schedule: Q01DX001 (ip), vehicle: saline 87 % of control | dose: 4.0 mg/kg/injection, schedule: Q01DX001 (oral), vehicle: suspension in saline 91 % of control | dose: 8.0 mg/kg/injection, schedule: Q01DX001 (oral), vehicle: saline 96 % of control | dose: 8.0 mg/kg/injection, schedule: Q01DX001 (oral), vehicle: suspension in saline 96 % of control | dose: 16.0 mg/kg/injection, schedule: Q01DX001 (oral), vehicle: suspension in saline 91 % of control | dose: 3.9 micrograms/kg/injection, schedule: Q## X006 (ip), vehicle: saline 97 % of control | dose: 7.8 micrograms/kg/injection, schedule: Q01DX005 (ip), vehicle: saline 103 % of control | dose: 7.8 micrograms/kg/injection, schedule: Q## X006 (ip), vehicle: saline 97 % of control | dose: 15.6 micrograms/kg/injection, schedule: Q01DX005 (ip), vehicle: saline 110 % of control | dose: 15.6 micrograms/kg/injection, schedule: Q## X006 (ip), vehicle: saline 92 % of control | dose: 16.0 micrograms/kg/injection, schedule: Q01DX005 (ip), vehicle: saline 102 % of control and 113 % of control | dose: 31.2 micrograms/kg/injection, schedule: Q## X006 (ip), vehicle: saline 95 % of control | dose: 32.0 micrograms/kg/injection, schedule: Q01DX005 (ip), vehicle: saline 104 % of control and 111 % of control | dose: 62.5 micrograms/kg/injection, schedule: Q01DX005 (ip), vehicle: saline 107 % of control and 109 % of control | dose: 62.5 micrograms/kg/injection, schedule: Q## X006 (ip), vehicle: saline 97 % of control | dose: 63.0 micrograms/kg/injection, schedule: Q01DX005 (ip), vehicle: saline 103 % of control and 105 % of control

CCC(=O)NC1=C(N2CC2C)C(=O)C(NC(=O)CC)=C(N2CC2C)C1=O (stereo unspecified)
inactive: dose: 6.25 mg/kg/injection, schedule: Q01DX009 (ip), vehicle: Klucel (hydroxypropylcellulose) (HPC) 105 % of control

CCN(CC)CCNc1ccc(CO)c2sc3ccccc3c(=O)c12
inactive: dose: 2.0 mg/kg/injection, schedule: Q01DX005 (ip), vehicle: saline 94 % of control | dose: 4.0 mg/kg/injection, schedule: Q01DX005 (ip), vehicle: saline 104 % of control | [10] 104 % of control | [9] 101 % of control | [11] 111 % of control | [12] 119 % of control

CCC(=O)O[C@H]1CC[C@H]2[C@@H]3CCC4=CC(=O)CC[C@]4(C)[C@H]3CC[C@]12C
inactive: [10] 91 % of control and 98 % of control | [9] 90 % of control and 102 % of control | [11] 93 % of control and 100 % of control | [12] 98 % of control and 99 % of control | dose: 128.0 mg/kg/injection, schedule: Q01DX005 (ip), vehicle: saline 90 % of control | dose: 256.0 mg/kg/injection, schedule: Q01DX005 (ip), vehicle: saline 89 % of control and 94 % of control | dose: 512.0 mg/kg/injection, schedule: Q01DX005 (ip), vehicle: saline 91 % of control and 99 % of control

CCC1=C[C@H]2CN(CCc3c([nH]c4ccccc34)[C@@](C(=O)OC)(c3cc4c(cc3OC)N(C)[C@H]3[C@@](O)(C(=O)OC)[C@H](OC(C)=O)[C@]5(CC)C=CCN6CC[C@]43[C@@H]65)C2)C1
inactive: [4] 100 % of control | [5] 108 % of control | [6] 110 % of control | [7] 103 % of control | [8] 102 % of control | dose: 1.6 mg/kg/injection, schedule: Q01DX005 (ip), vehicle: saline 105 % of control
